From article PMC8710044 (Biochemical pharmacology, 2021)

T1: CYP2C8 (Homo sapiens, UniProt P10632)
T1 sequence (P10632 1-490): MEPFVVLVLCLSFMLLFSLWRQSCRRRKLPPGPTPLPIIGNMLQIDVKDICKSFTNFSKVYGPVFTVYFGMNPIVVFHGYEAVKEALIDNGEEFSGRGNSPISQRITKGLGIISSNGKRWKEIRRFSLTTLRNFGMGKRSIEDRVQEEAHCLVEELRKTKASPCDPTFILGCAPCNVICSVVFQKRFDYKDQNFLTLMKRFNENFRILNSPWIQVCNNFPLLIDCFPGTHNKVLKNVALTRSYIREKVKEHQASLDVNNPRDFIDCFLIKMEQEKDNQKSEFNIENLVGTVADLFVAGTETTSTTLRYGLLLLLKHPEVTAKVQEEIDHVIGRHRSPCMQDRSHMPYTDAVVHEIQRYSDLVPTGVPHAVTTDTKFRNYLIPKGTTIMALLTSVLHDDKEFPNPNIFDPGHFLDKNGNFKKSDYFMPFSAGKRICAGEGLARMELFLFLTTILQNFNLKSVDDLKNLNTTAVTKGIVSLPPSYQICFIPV


Key:
CYP2C19 = CYP2C19 (Homo sapiens, UniProt P33261); test: Relative CYP contribution to hepatic bioactivation and detoxification, CYP2C19; assay type: in vitro ADME; conditions: for Bioactivation Percent: CYP2C19 contribution to total CLbioact of the NSAID; for Detoxification Percent: CYP2C19 contribution to total CLdetox of the NSAID
CYP2C9 = CYP2C9 (Homo sapiens, UniProt P11712); test: Relative CYP contribution to hepatic bioactivation and detoxification, CYP2C9; assay type: in vitro ADME; conditions: for Bioactivation Percent: CYP2C9 contribution to total CLbioact of the NSAID; for Detoxification Percent: CYP2C9 contribution to total CLdetox of the NSAID
CYP3A4 = CYP3A4 (Homo sapiens, UniProt P08684); test: Relative CYP contribution to hepatic bioactivation and detoxification, CYP3A4; assay type: in vitro ADME; conditions: for Bioactivation Percent: CYP3A4 contribution to total CLbioact of the NSAID; for Detoxification Percent: CYP3A4 contribution to total CLdetox of the NSAID
CYP2C8 = target: T1, CYP2C8; test: Relative CYP contribution to hepatic bioactivation and detoxification, CYP2C8; assay type: in vitro ADME; conditions: for Bioactivation Percent: CYP2C8 contribution to total CLbioact of the NSAID; for Detoxification Percent: CYP2C8 contribution to total CLdetox of the NSAID
[1] = substrate: Cc1ccc(Nc2c(F)cccc2Cl)c(CC(=O)O)c1; test: cells, lysate or membranes named; conditions: other: CYP2C9; adduct Unk; 95% CI in parentheses; pH 7.4
[2] = substrate: Cc1cccc(Nc2ccccc2C(=O)O)c1C; test: cells, lysate or membranes named; conditions: other: CYP2C9, path 1, 2, 95% CI in parentheses, pH 7.4
[3] = substrate: O=C(O)COC(=O)Cc1ccccc1Nc1c(Cl)cccc1Cl; test: cells, lysate or membranes named; conditions: other: CYP2C9, 95% CI in parentheses, pH 7.4
[4] = substrate: Cc1ccc(Cl)c(Nc2ccccc2C(=O)O)c1Cl; test: cells, lysate or membranes named; conditions: other: CYP2C9; metabolite M9, path 4; 95% CI in parentheses; pH 7.4
[5] = substrate: Cc1c(Cl)cccc1Nc1ccccc1C(=O)O; test: cells, lysate or membranes named; conditions: other: CYP2C9, path 1, 2, 95% CI in parentheses, pH 7.4
[6] = substrate: Cc1cccc(Nc2ccccc2C(=O)O)c1C; test: Steady-state bioactivation kinetics; assay type: in vitro ADME, human; conditions: other: CYP2C8, path 1, 2, 95% CI in parentheses, pH 7.4
[7] = substrate: O=C(O)COC(=O)Cc1ccccc1Nc1c(Cl)cccc1Cl; test: Steady-state bioactivation kinetics; assay type: in vitro ADME, human; conditions: other: CYP2C8, 95% CI in parentheses, pH 7.4
[8] = substrate: Cc1cccc(Nc2ccccc2C(=O)O)c1C; test: Steady-state kinetics of overall NSAID metabolism; assay type: in vitro ADME, human; conditions: other: overall metabolism (depletion) by CYP2C8; 95% CI in parentheses; pH 7.4
[9] = substrate: O=C(O)COC(=O)Cc1ccccc1Nc1c(Cl)cccc1Cl; test: Steady-state kinetics of overall NSAID metabolism; assay type: in vitro ADME, human; conditions: other: overall metabolism (depletion) by CYP2C8; 95% CI in parentheses; pH 7.4

CYP3A4, sequence (P08684 whole entry): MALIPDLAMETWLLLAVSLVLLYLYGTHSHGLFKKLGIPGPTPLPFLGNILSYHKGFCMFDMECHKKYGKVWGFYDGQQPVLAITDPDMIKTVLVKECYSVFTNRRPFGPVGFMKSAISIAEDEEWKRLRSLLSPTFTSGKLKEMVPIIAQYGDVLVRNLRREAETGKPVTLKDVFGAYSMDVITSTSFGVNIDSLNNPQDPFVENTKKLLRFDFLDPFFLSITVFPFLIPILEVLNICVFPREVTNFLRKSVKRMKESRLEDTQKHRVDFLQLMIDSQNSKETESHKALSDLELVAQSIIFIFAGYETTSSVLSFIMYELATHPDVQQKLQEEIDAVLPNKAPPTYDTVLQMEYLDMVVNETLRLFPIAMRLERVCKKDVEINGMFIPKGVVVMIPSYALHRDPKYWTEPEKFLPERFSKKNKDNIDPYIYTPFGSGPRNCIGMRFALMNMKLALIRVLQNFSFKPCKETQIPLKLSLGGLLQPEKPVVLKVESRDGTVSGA
CYP2C19, sequence (P33261 whole entry): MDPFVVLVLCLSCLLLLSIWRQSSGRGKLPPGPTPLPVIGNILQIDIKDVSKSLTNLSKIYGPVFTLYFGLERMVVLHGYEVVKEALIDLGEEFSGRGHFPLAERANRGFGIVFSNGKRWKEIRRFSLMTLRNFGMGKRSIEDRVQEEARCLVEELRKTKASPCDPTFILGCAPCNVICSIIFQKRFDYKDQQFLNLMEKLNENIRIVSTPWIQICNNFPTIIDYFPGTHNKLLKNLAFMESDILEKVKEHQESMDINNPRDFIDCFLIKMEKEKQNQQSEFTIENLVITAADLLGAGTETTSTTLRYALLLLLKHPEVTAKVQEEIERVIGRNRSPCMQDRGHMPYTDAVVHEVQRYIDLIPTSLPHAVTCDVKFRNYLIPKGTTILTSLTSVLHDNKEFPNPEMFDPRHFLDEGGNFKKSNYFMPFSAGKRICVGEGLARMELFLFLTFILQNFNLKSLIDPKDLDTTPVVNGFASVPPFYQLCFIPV

Molecule | Bioactivation Percent (CYP2C19) | Detoxification Percent (CYP2C19) | Bioactivation Percent (CYP2C9) | Detoxification Percent (CYP2C9) | Bioactivation Percent (CYP3A4) | Detoxification Percent (CYP3A4) | further results
Cc1ccc(Cl)c(Nc2ccccc2C(=O)O)c1Cl [MEC, meclofenamic acid] | 19.6% | 1.9% | 55.7% | 36.5% | 24.7% | 61.6% | 
O=C(O)COC(=O)Cc1ccccc1Nc1c(Cl)cccc1Cl [ACE, aceclofenac] | 2.0% | 1.6% | 94.3% | 30.7% | 1.2% | 60.4% | Bioactivation Percent (CYP2C8): 2.5%; Detoxification Percent (CYP2C8): 7.3%
Cc1ccc(Nc2c(F)cccc2Cl)c(CC(=O)O)c1 [LUM, lumiracoxib] | 0.5% | 8.6% | 95.8% | 23.4% | 3.7% | 68.0% | 
O=C(O)c1ccccc1Nc1cccc(C(F)(F)F)c1 [FLU, flufenamic acid] | 1.7% | 3.4% | 42.3% | 27.6% | 55.9% | 69.0% | 
Cc1cccc(Nc2ccccc2C(=O)O)c1C [MEF, mefenamic acid] | 1.2% | 2.1% | 91.4% | 36.9% | 6.0% | 56.4% | Bioactivation Percent (CYP2C8): 1.4%; Detoxification Percent (CYP2C8): 4.6%
Cc1c(Cl)cccc1Nc1ccccc1C(=O)O [TOL, tolfenamic acid] | 2.0% | 3.6% | 72.8% | 35.5% | 25.2% | 60.9% | 
CYP2C9 (Homo sapiens) (protein) MDSLVVLVLCLSCLLLLSLWRQSSGRGKLPPGPTPLPVIGNILQIGIKDISKSLTNLSKVYGPVFTLYFGLKPIVVLHGYEAVKEALIDLGEEFSGRGIFPLAERANRGFGIVFSNGKKWKEIRRFSLMTLRNFGMGKRSIEDRVQEEARCLVEELRKTKASPCDPTFILGCAPCNVICSIIFHKRFDYKDQQFLNLMEKLNENIKILSSPWIQICNNFSPIIDYFPGTHNKLLKNVAFMKSYILEKVKEHQESMDMNNPQDFIDCFLMKMEKEKHNQPSEFTIESLENTAVDLFGAGTETTSTTLRYALLLLLKHPEVTAKVQEEIERVIGRNRSPCMQDRSHMPYTDAVVHEVQRYIDLLPTSLPHAVTCDIKFRNYLIPKGTTILISLTSVLHDNKEFPNPEMFDPHHFLDEGGNFKKSKYFMPFSAGKRICVGEALAGMELFLFLTSILQNFNLKSLVDPKNLDTTPVVNGFASVPPFYQLCFIPV |  |  |  |  |  |  | Km [1]: 27.0 (22.4–32.3) μM; kcat [1]: 23.5 (22.5–24.5) pmol/min/nmol protein; Km ([2]; metabolite M2/M4a): 17.5 (13.4–22.7) μM; kcat ([2]; metabolite M2/M4a): 25.6 (24.2–27.0) pmol/min/nmol protein; Km ([2]; metabolite M2/M4b): 12.9 (10.1–16.5) μM; kcat ([2]; metabolite M2/M4b): 35.7 (34.0–37.4) pmol/min/nmol protein; Km ([3]; adduct Unk): 7.9 (5.8–10.7) μM; kcat ([3]; adduct Unk): 10.2 (9.7–10.9) pmol/min/nmol protein; Km ([3]; metabolite M9, path 4): 23.8 (19.4–28.9) μM; kcat ([3]; metabolite M9, path 4): 68.5 (65.0–72.2) pmol/min/nmol protein; Km [4]: 5.5 (4.3–7.1) μM; kcat [4]: 5.2 (5.0–5.4) pmol/min/nmol protein; Km ([5]; metabolite M2/M4a): 6.5 (5.2–8.0) μM; kcat ([5]; metabolite M2/M4a): 15.2 (14.6–15.9) pmol/min/nmol protein; Km ([5]; metabolite M2/M4b): 6.9 (5.8–8.8) μM; kcat ([5]; metabolite M2/M4b): 16.1 (15.6–16.7) pmol/min/nmol protein
CYP2C8 (Homo sapiens) (protein) MEPFVVLVLCLSFMLLFSLWRQSCRRRKLPPGPTPLPIIGNMLQIDVKDICKSFTNFSKVYGPVFTVYFGMNPIVVFHGYEAVKEALIDNGEEFSGRGNSPISQRITKGLGIISSNGKRWKEIRRFSLTTLRNFGMGKRSIEDRVQEEAHCLVEELRKTKASPCDPTFILGCAPCNVICSVVFQKRFDYKDQNFLTLMKRFNENFRILNSPWIQVCNNFPLLIDCFPGTHNKVLKNVALTRSYIREKVKEHQASLDVNNPRDFIDCFLIKMEQEKDNQKSEFNIENLVGTVADLFVAGTETTSTTLRYGLLLLLKHPEVTAKVQEEIDHVIGRHRSPCMQDRSHMPYTDAVVHEIQRYSDLVPTGVPHAVTTDTKFRNYLIPKGTTIMALLTSVLHDDKEFPNPNIFDPGHFLDKNGNFKKSDYFMPFSAGKRICAGEGLARMELFLFLTTILQNFNLKSVDDLKNLNTTAVTKGIVSLPPSYQICFIPV |  |  |  |  |  |  | Km ([6]; metabolite M2/M4a): 51.9 µM; kcat ([6]; metabolite M2/M4a): 5.6 (5.5–5.8) pmol/min/nmol protein; Km ([6]; metabolite M2/M4b): 75.6 µM; kcat ([6]; metabolite M2/M4b): 5.4 (5.2–5.5) pmol/min/nmol protein; Km ([7]; metabolite M2/M4, path 1, 2): 6.3 µM; kcat ([7]; metabolite M2/M4, path 1, 2): 1.4 (1.3–1.5) pmol/min/nmol protein; Km ([7]; metabolite M6, path 3): 9.4 µM; kcat ([7]; metabolite M6, path 3): 4.0 (3.9–4.1) pmol/min/nmol protein; Km ([7]; metabolite M9, path 4): 6.7 µM; kcat ([7]; metabolite M9, path 4): 1.7 (1.6–1.8) pmol/min/nmol protein; Km [8]: 160 (140–190) μM; kcat [8]: 2390 (2230–2560) pmol/min/nmol protein; Km [9]: 110 (96–130) μM; kcat [9]: 1740 (1640–1850) pmol/min/nmol protein
